The structures appear in SMILES notation.

Format in all cases: cell-based, human
Test [1] deals with TNF-α-stimulated VSMC. Put plainly: Static monocyte (U937) adhesion assay, TNF-α-stimulated VSMC (RvD). As to conditions: U937 monocytes; TNF-α 10 ng/ml 4 hours; peak inhibition at 10 nM. From the text: (§1) Primary cultures of human greater saphenous vein smooth muscle cells (hVSMC) are isolated from saphenous vein discarded at the time of bypass operation in an Institutional Review Board-approved protocol as described by Conte et al. “Regulation of vein graft hyperplasia by survivin, an inhibitor of apoptosis protein.” Arterioscler Thromb Vasc Biol. 2005; 25:2081-2087. VSMCs are maintained in Dulbecco's modified Eagle's medium (DMEM Low Glucose) (HyClone Laboratories Inc, Logan, Utah) containing 10% fetal bovine serum (FBS) (Invitrogen Life Technologies, Grand Island, N.Y.) and used between passages 2-5. Endothelial cells were maintained in Medium 199 supplemented with EBSS (Hyclone Laboratories, Logan, Utah, USA) and Endothelial Cell Growth Supplement. Cells between passages 3-8 were used for the experiments.
RvD. […] Fluorescence measurements (excitation 494 nm, emission 517 nm) of bound monocytes are made with plate reader (Spectra Max M2, Molecular Devices, LLC, Sunnyvale, Calif.).
(§2) FIG. 1: RvD1 and RvD2 attenuate cell adhesion, proliferation, and migration responses of human VSMC in-vitro. […] Results are shown as relative percent inhibition, expressed as a percentage of the maximal adhesion for the agonist (n=6, results are mean±SEM, **P<0.01, *P<0.05, unpaired t-test). […] Results are expressed as percentage change in migration from unstimulated control (no PDGF). […]

For test [2], the system named is VSMC. The test is described as follows: Transwell migration of VSMC to PDGF-AB. The conditions noted are these: 100 nM; chemotaxis to PDGF-AB 50 ng/mL, 8 hours; P<0.01.
From the text: as §1
RvD. […]
as §2

Test [3] relates to ICAM-1. Put plainly: TNF-α-stimulated ICAM-1 gene expression in VSMC by qRT-PCR. As to conditions: 100 nM; TNF-α 10 ng/ml 18 hours; P<0.01. Here is the method: (§3) Cells are plated onto 6-well plates at 100% confluency in DMEM plus 10% FBS and allowed to attached overnight. Cells are then made quiescent by placing in serum-free media for 48-72 hours prior to start of experiments. Cells are treated with or without RvD1 or RvD2 at the indicated concentrations for one hour followed by co-incubation with cytokine (TNF-α 10 ng/ml) for up to 18 hours. In a separate set of experiments to examine the role of G-protein receptors, VSMCs are exposed to TNF-α and RvD2 (10 nM) as described above, in the presence or absence of pertussis toxin (PTX 100 ng/ml). Total RNA from rabbit sample or cells is isolated with PureLink RNA Mini kit (Ambion Life Technologies, Carlsbad, Calif.) with RNase-free DNase treatment according to manufacturer's protocol. One microgram of total RNA (from either VSMC or rabbit tissue) is used to generate cDNA using High Capacity cDNA Reverse Transcription Kit (Applied Biosystems, Foster City, Calif.) for subsequent RT-PCR reactions. Sybrgreen Amplified DNA is detected by incorporation SYBR Green (Qiagen, Germantown, Md.). Dissociation curve analyses are performed to confirm the specificity of the SYBR Green signal. Data is normalized to at least two reference genes. […]
(§4) FIG. 2: RvD1 and RvD2 reduce pro-inflammatory gene expression in VSMC. […] Expression of the cell adhesion molecules VCAM-1 (A) and ICAM-1 (B) was measured by qRT-PCR. […]

Test [4] deals with TNF-α, IL-1β, MCP-1, IL-6, and IL-1α. The test is described as follows: TNF-α-stimulated inflammatory cytokine gene expression in VSMC by qRT-PCR. The conditions noted are these: 0.1 nM or 10 nM, greatest attenuation in IL-1β. The method, then:
as §3, §4

Test [5] relates to Stat1, C/EBP, SMAD, SATB1, EGR. The test is described as follows: Transcription factor multiplex array in TNF-α-stimulated VSMC. The conditions noted are these: 10 nM; TNF-α 10 ng/ml 18 hours. The method, then: Cells are plated onto 96-well plates and treated with 10 ng/ml TNF-α in the presence or absence of 10 nM RvD2 for 18 hours and then nuclear extracts are prepared. Transcription factor profiling is performed using a multiplex array according to the manufacturer's instructions (Signosis Inc., Sunnyvale, Calif.).
FIG. 11: RvD1 and RvD2 modulate activity of multiple transcription factors in TNF-α-stimulated VSMC. VSMCs were treated with TNF-α (10 ng/ml) for 18 hours and nuclear extracts were prepared. Transcription factor profiling was performed using a multiplex array.

For `CC/C=C\C[C@H](O)/C=C/C=C\C=C\C=C\[C@@H](O)[C@@H](O)C/C=C\CCC(=O)O` [RvD1, Resolvin D1], in test [1], the “maximum % inhibition of monocyte adhesion” value worked out at 36%. Further, the “Maximum % reduction in the cell migration assay” value in test [2] came to 63%. The “ICAM-1 expression, maximum % reduction” value in test [3] was 63%. Besides, the “expression of multiple inflammatory cytokines including TNF-α, IL-1β, MCP-1, IL-6, and IL-1α” value in test [4] is “broad, significant reduction”.

For `CC/C=C\C[C@H](O)[C@H](O)/C=C/C=C/C=C\C=C\[C@@H](O)C/C=C\CCC(=O)O` [RvD2, resolvin D2], in test [1], the “maximum % inhibition of monocyte adhesion” value worked out at 41%. In test [2], the “Maximum % reduction in the cell migration assay” value came out at 69%. Moreover, the “ICAM-1 expression, maximum % reduction” value in test [3] amounted to 70%. The “expression of multiple inflammatory cytokines including TNF-α, IL-1β, MCP-1, IL-6, and IL-1α” value in test [4] is reported as “broad, significant reduction”. The “transcription factor activity (Stat1, C/EBP, SMAD, SATB1, EGR) vs TNF-α-stimulated controls” value in test [5] is “significantly downregulated”.

For the origin of these results see patent publication US10111847B2, “Compounds and methods for modulating vascular injury” (The Regents of the University of California, priority 2012, dated 2018).
